According to US20200254065A1, “LONG-ACTING GLP-2 ANALOGS” (OPKO Biologics Ltd., priority 2019, published 2020):
Square brackets hold non-standard residues; d marks the D form. Ends that are not written are not given here. Peptide text beside a SMILES is read from it. Nle = CCCC[C@H](N)C(=O)O

T1: GLP-2 receptor (Homo sapiens, UniProt O95838)
T1 sequence (O95838 1-553): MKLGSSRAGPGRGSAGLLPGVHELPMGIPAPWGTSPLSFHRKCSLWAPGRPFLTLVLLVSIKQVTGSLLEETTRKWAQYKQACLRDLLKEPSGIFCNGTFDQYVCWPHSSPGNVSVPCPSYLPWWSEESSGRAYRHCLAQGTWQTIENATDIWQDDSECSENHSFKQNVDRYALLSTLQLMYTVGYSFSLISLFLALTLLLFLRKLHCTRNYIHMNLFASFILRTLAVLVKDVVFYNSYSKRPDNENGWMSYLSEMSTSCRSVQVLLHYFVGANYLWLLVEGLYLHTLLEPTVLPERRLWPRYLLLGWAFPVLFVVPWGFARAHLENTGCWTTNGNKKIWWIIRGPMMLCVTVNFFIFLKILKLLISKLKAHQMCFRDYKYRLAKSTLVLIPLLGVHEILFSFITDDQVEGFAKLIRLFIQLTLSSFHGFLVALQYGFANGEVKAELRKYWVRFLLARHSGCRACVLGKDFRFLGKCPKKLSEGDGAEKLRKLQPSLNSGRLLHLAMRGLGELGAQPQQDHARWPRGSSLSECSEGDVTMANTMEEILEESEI

T2: GLP-2 receptor (UniProt O95838 1-553, limits assumed)
T2 sequence (looked up): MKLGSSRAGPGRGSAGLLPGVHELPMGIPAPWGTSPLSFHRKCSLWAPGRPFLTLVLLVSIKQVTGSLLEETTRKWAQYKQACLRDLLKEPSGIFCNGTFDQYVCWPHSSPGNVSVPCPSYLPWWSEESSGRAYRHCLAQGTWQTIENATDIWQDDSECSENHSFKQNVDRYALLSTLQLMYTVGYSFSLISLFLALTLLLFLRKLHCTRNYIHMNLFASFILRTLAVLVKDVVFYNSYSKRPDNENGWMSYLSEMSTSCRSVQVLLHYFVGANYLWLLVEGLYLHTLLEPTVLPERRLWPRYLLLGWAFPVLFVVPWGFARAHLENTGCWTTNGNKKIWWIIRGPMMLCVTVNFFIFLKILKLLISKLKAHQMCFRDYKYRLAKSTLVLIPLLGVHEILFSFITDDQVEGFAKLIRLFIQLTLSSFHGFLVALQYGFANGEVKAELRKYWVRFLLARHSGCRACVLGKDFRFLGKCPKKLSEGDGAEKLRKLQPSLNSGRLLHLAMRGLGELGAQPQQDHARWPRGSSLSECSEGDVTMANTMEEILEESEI


Columns and labels:
[1] = Stability of GLP-2 analogues on incubation at 37° C. (appearance, O.D. reading, RP-HPLC); format: physicochemical; conditions: following 48 h incubation at 37° C.; for Stability via RP-HPLC main peak: change of main peak
Description: The GLP-2 analogues were tested for stability via appearance, O.D. reading (A.280, and A.325) and RP-HPLC (purity, and peak area) following t=0, 1 day, and 48 h incubation at 37° C.

GLP-2 receptor [2] = target: T1, GLP-2 receptor; assay: GLP-2 receptor Cell Based Assay (CBA)
Description: Evaluation of in vitro binding affinity of the different peptides was assessed by using Cell Based Assay (CBA) in the presence of escalating doses of the different peptides.

GLP-2 receptor [3] = target: T2, GLP-2 receptor; assay: cell-based or functional assay
[4] = Table 8, average of 3 independent CBA

EC50 Ratio to Teduglutide, CBA (GLP-2 receptor [3])	EC50 [nM], Cell Based Assay (CBA), cells overexpressing the GLP-2 receptor (GLP-2 receptor [3])	Molecule	also measured
		CCCC[C@H](NC(=O)[C@H](CCC(=O)O)NC(=O)[C@H](CC(=O)O)NC(=O)[C@H](CO)NC(=O)[C@H](Cc1ccccc1)NC(=O)[C@H](CO)NC(=O)CNC(=O)[C@H](CCC(=O)O)NC(=O)CNC(=O)[C@@H](N)Cc1c[nH]cn1)C(=O)N[C@H](Cc1ccccc1)C(=O)N[C@H](C(=O)N[C@H](C(=O)N[C@@H](CC(C)C)C(=O)N[C@@H](CC(=O)O)C(=O)N[C@@H](CC(C)C)C(=O)N[C@@H](CC(C)C)C(=O)N[C@@H](C)C(=O)N[C@@H](C)C(=O)N[C@@H](CCCNC(=N)N)C(=O)N[C@@H](CC(=O)O)C(=O)N[C@@H](Cc1ccccc1)C(=O)N[C@H](C(=O)N[C@@H](CC(N)=O)C(=O)N[C@@H](Cc1c[nH]c2ccccc12)C(=O)N[C@@H](CC(C)C)C(=O)N[C@H](C(=O)N[C@@H](CCC(N)=O)C(=O)N[C@H](C(=O)N[C@@H](CCCCN)C(=O)N[C@H](C(=O)N[C@H](C(=O)N[C@@H](CC(=O)O)C(N)=O)[C@@H](C)O)[C@@H](C)CC)[C@@H](C)O)[C@@H](C)CC)[C@@H](C)CC)[C@@H](C)CC)[C@@H](C)O [Variant 9] (H-HGEGSFSDE[Nle][dF]TILDLLAARDFINWLIQTKITD-NH2)	Solubility via appearance [1]: V9: clear; Stability via RP-HPLC main peak [1]: V9: −1.5%
		HGEGTFSSELATILDALAARDFIAWLIATKITDKKKKKK-NH2 [Variant 10, NH2-HG^2E^3GT^5FSS^8EL^10A^11TILDA^16LAAR20DFIA^24WLIA^28TKITDK^34K^35K^36K^37K^38K^39- NH2, reference compound]	EC50 (GLP-2 receptor [2]; EC50 (nM) Average, average of 3 independent CBA, different GLP-2R Assay Kit lot (Table 8)): 5.4 nM
		CCCC[C@H](NC(=O)[C@H](CCC(=O)O)NC(=O)[C@H](CC(=O)O)NC(=O)[C@H](CO)NC(=O)[C@H](Cc1ccccc1)NC(=O)[C@H](CO)NC(=O)CNC(=O)[C@H](CCC(=O)O)NC(=O)CNC(=O)[C@@H](N)Cc1c[nH]cn1)C(=O)N[C@H](Cc1ccccc1)C(=O)N[C@H](C(=O)N[C@H](C(=O)N[C@@H](CC(C)C)C(=O)N[C@@H](CC(=O)O)C(=O)N[C@@H](CC(N)=O)C(=O)N[C@@H](CC(C)C)C(=O)N[C@@H](C)C(=O)N[C@@H](C)C(=O)N[C@@H](CCCNC(=N)N)C(=O)N[C@@H](CC(=O)O)C(=O)N[C@@H](Cc1ccccc1)C(=O)N[C@H](C(=O)N[C@@H](CC(N)=O)C(=O)N[C@@H](Cc1c[nH]c2ccccc12)C(=O)N[C@@H](CC(C)C)C(=O)N[C@H](C(=O)N[C@@H](CCC(N)=O)C(=O)N[C@H](C(=O)N[C@@H](CCCCN)C(=O)N[C@H](C(=O)N[C@H](C(=O)N[C@@H](CC(=O)O)C(N)=O)[C@@H](C)O)[C@@H](C)CC)[C@@H](C)O)[C@@H](C)CC)[C@@H](C)CC)[C@@H](C)CC)[C@@H](C)O [Variant 2] (H-HGEGSFSDE[Nle][dF]TILDNLAARDFINWLIQTKITD-NH2)	Solubility via appearance [1]: V2: opaque; Stability via RP-HPLC main peak [1]: V2: −30%; EC50 Ratio to Teduglutide (GLP-2 receptor [2]; Table 7): 6.4
		H-HGEGTFSSELATILDALAARDFIAWLIATKITDKKKKKK-NH2 [Variant 10, NH2-HG^2E^3GT^5FSS^8EL^10A^11TILDA^16LAAR20DFIA^24WLIA^28TKITDK^34K^35K^36K^37K^38K^39- NH2, reference compound]	EC50 Ratio to Teduglutide (GLP-2 receptor [2]; [4]): 9.4; EC50 Ratio to Variant 4 (GLP-2 receptor [2]; [4]): 5.3
2.5 fold	14.2 nM	H-HGEGSFSDE[Nle][dH]TILDNLAARDFINWLIQTKITD-NH2 (SMILES CCCC[C@H](NC(=O)[C@H](CCC(=O)O)NC(=O)[C@H](CC(=O)O)NC(=O)[C@H](CO)NC(=O)[C@H](Cc1ccccc1)NC(=O)[C@H](CO)NC(=O)CNC(=O)[C@H](CCC(=O)O)NC(=O)CNC(=O)[C@@H](N)Cc1c[nH]cn1)C(=O)N[C@H](Cc1c[nH]cn1)C(=O)N[C@H](C(=O)N[C@H](C(=O)N[C@@H](CC(C)C)C(=O)N[C@@H](CC(=O)O)C(=O)N[C@@H](CC(N)=O)C(=O)N[C@@H](CC(C)C)C(=O)N[C@@H](C)C(=O)N[C@@H](C)C(=O)N[C@@H](CCCNC(=N)N)C(=O)N[C@@H](CC(=O)O)C(=O)N[C@@H](Cc1ccccc1)C(=O)N[C@H](C(=O)N[C@@H](CC(N)=O)C(=O)N[C@@H](Cc1c[nH]c2ccccc12)C(=O)N[C@@H](CC(C)C)C(=O)N[C@H](C(=O)N[C@@H](CCC(N)=O)C(=O)N[C@H](C(=O)N[C@@H](CCCCN)C(=O)N[C@H](C(=O)N[C@H](C(=O)N[C@@H](CC(=O)O)C(N)=O)[C@@H](C)O)[C@@H](C)CC)[C@@H](C)O)[C@@H](C)CC)[C@@H](C)CC)[C@@H](C)CC)[C@@H](C)O) [GLP-2 Variant #3]	
6.4 fold	36.1 nM	H-HGEGSFSDE[Nle][dF]TILDNLAARDFINWLIQTKITD-NH2 (SMILES CCCC[C@H](NC(=O)[C@H](CCC(=O)O)NC(=O)[C@H](CC(=O)O)NC(=O)[C@H](CO)NC(=O)[C@H](Cc1ccccc1)NC(=O)[C@H](CO)NC(=O)CNC(=O)[C@H](CCC(=O)O)NC(=O)CNC(=O)[C@@H](N)Cc1c[nH]cn1)C(=O)N[C@H](Cc1ccccc1)C(=O)N[C@H](C(=O)N[C@H](C(=O)N[C@@H](CC(C)C)C(=O)N[C@@H](CC(=O)O)C(=O)N[C@@H](CC(N)=O)C(=O)N[C@@H](CC(C)C)C(=O)N[C@@H](C)C(=O)N[C@@H](C)C(=O)N[C@@H](CCCNC(=N)N)C(=O)N[C@@H](CC(=O)O)C(=O)N[C@@H](Cc1ccccc1)C(=O)N[C@H](C(=O)N[C@@H](CC(N)=O)C(=O)N[C@@H](Cc1c[nH]c2ccccc12)C(=O)N[C@@H](CC(C)C)C(=O)N[C@H](C(=O)N[C@@H](CCC(N)=O)C(=O)N[C@H](C(=O)N[C@@H](CCCCN)C(=O)N[C@H](C(=O)N[C@H](C(=O)N[C@@H](CC(=O)O)C(N)=O)[C@@H](C)O)[C@@H](C)CC)[C@@H](C)O)[C@@H](C)CC)[C@@H](C)CC)[C@@H](C)CC)[C@@H](C)O) [GLP-2 Variant #2]	
3.8 fold	21.7 nM	H-HGEGSFSDE[Nle]NTILDLLAARDFINWLIQTKITD-OH (SMILES CCCC[C@H](NC(=O)[C@H](CCC(=O)O)NC(=O)[C@H](CC(=O)O)NC(=O)[C@H](CO)NC(=O)[C@H](Cc1ccccc1)NC(=O)[C@H](CO)NC(=O)CNC(=O)[C@H](CCC(=O)O)NC(=O)CNC(=O)[C@@H](N)Cc1c[nH]cn1)C(=O)N[C@@H](CC(N)=O)C(=O)N[C@H](C(=O)N[C@H](C(=O)N[C@@H](CC(C)C)C(=O)N[C@@H](CC(=O)O)C(=O)N[C@@H](CC(C)C)C(=O)N[C@@H](CC(C)C)C(=O)N[C@@H](C)C(=O)N[C@@H](C)C(=O)N[C@@H](CCCNC(=N)N)C(=O)N[C@@H](CC(=O)O)C(=O)N[C@@H](Cc1ccccc1)C(=O)N[C@H](C(=O)N[C@@H](CC(N)=O)C(=O)N[C@@H](Cc1c[nH]c2ccccc12)C(=O)N[C@@H](CC(C)C)C(=O)N[C@H](C(=O)N[C@@H](CCC(N)=O)C(=O)N[C@H](C(=O)N[C@@H](CCCCN)C(=O)N[C@H](C(=O)N[C@H](C(=O)N[C@@H](CC(=O)O)C(=O)O)[C@@H](C)O)[C@@H](C)CC)[C@@H](C)O)[C@@H](C)CC)[C@@H](C)CC)[C@@H](C)CC)[C@@H](C)O) [GLP-2 Variant #6]	
3 fold	17.2 nM	H-HGEGSFSDE[Nle]NTILDYLAARDFINWLIQTKITD-OH (SMILES CCCC[C@H](NC(=O)[C@H](CCC(=O)O)NC(=O)[C@H](CC(=O)O)NC(=O)[C@H](CO)NC(=O)[C@H](Cc1ccccc1)NC(=O)[C@H](CO)NC(=O)CNC(=O)[C@H](CCC(=O)O)NC(=O)CNC(=O)[C@@H](N)Cc1c[nH]cn1)C(=O)N[C@@H](CC(N)=O)C(=O)N[C@H](C(=O)N[C@H](C(=O)N[C@@H](CC(C)C)C(=O)N[C@@H](CC(=O)O)C(=O)N[C@@H](Cc1ccc(O)cc1)C(=O)N[C@@H](CC(C)C)C(=O)N[C@@H](C)C(=O)N[C@@H](C)C(=O)N[C@@H](CCCNC(=N)N)C(=O)N[C@@H](CC(=O)O)C(=O)N[C@@H](Cc1ccccc1)C(=O)N[C@H](C(=O)N[C@@H](CC(N)=O)C(=O)N[C@@H](Cc1c[nH]c2ccccc12)C(=O)N[C@@H](CC(C)C)C(=O)N[C@H](C(=O)N[C@@H](CCC(N)=O)C(=O)N[C@H](C(=O)N[C@@H](CCCCN)C(=O)N[C@H](C(=O)N[C@H](C(=O)N[C@@H](CC(=O)O)C(=O)O)[C@@H](C)O)[C@@H](C)CC)[C@@H](C)O)[C@@H](C)CC)[C@@H](C)CC)[C@@H](C)CC)[C@@H](C)O) [GLP-2 Variant #7]	
